In patent publication US11046710B2, “Sulfonamide compounds” (DAIICHI SANKYO COMPANY, LIMITED, priority 2016, dated 2021):

Tests used:
[1] = system: plasma ALP (80-90% containing TNAP); assay: Inhibitory test of plasma TNAP activity in B6 mouse; format: in vivo; details: oral, average 0-6 h after administration
Method: After blood sampling from the tail vein using a heparin-treated hematocrit capillary tube (EM Meister Hematocrit Capillary Tube, AS ONE Corp.) (as the sample before compound administration), each test compound suspended in a 0.5% methylcellulose solution (powder purchased from Wako Pure Chemical Industries, Ltd. was adjusted to 0.5% with Otsuka distilled water) was administered orally to the mouse. 1, 2, 4, 6, and 24 hours after the administration, blood was collected from the tail vein using a heparin-treated hematocrit capillary tube to obtain a plasma sample. The plasma sample was added to an assay buffer (1 M Tris, 1 M MgCl2, 20 mM ZnCl2, and water, pH 7.5), and the mixture was left standing for 5 minutes. Then, the absorbance at 405 nm was measured and used as a blank. The substrate pNPP was added to the plasma sample and incubated at room temperature for 180 minutes. Then, the absorbance (ABS: 405 nm) was measured using a microplate reader (model plus 384, Molecular Devices, LLC), and the concentration of produced p-nitrophenol was calculated. The blank was subtracted from all measurement values to calculate TNAP activity at each time point with the TNAP activity of the sample before compound administration defined as 100%. The pharmaceutical effect of the test compound was evaluated by the average inhibition of plasma ALP (80-90% containing TNAP) activity for 6 hours from 0 hour to 6 hour after the administration of the test compound. It was calculated according to the following expression: 100−((plasma ALP activity at 0 hr+plasma ALP activity at 1 hr)*½+(plasma ALP activity at 1 hr+plasma ALP activity at 2 hr)*½+(plasma ALP activity at 2 hr+plasma ALP activity at 4 hr)*2/2+(plasma ALP activity at 4 hr+plasma ALP activity at 6 hr)*2/2)/6 The results are shown in Table 2.

[2] = target: human TNAP (Homo sapiens (Human), UniProt P05186); assay: Inhibitory test of TNAP activity (pNPP substrate, p-nitrophenol production); format: biochemical; details: human TNAP from transfected COS1 culture supernatant, 60 minutes at room temperature
Method: COS1 cells (DS Pharma Biomedical Co., Ltd.) were transfected with human TNAP (OriGene Technologies, Inc.) using Lipofectamine LTX & Plus reagent (Invitrogen Corp.). On the next day, the medium was replaced with a fresh medium, and the cells were cultured in an incubator for 3 days. After 3 days, the culture supernatant was collected and concentrated by centrifugation at 5000 G for 30 minutes using Amicon 14, 10^4 cut (Merck Millipore). The concentrated culture supernatant was dialyzed against 5 L of 50 mM Tris/200 mM NaCl/1 mM MgCl2/20 μM ZnCl2 twice and used as an enzyme source (enzyme solution). The substrate pNPP (ProteoChem Inc.) was adjusted to 3.1 mM with Milli-Q water, and a solution of each test compound dissolved in dimethyl sulfoxide (DMSO; Wako Pure Chemical Industries, Ltd.) by 6 serial dilutions at a 5-fold common ratio from 100 μM, or DMSO was added thereto at a final concentration of 1% by volume. The enzyme solution adjusted to 2 μg/mL with an assay buffer (200 mM Tris/2 mM MgCl2/0.04 mM ZnCl2/0.01% Tween 20) was added in the same amount of the substrate solution and incubated at room temperature for 60 minutes. Then, the absorbance (ABS: 405 nm) was measured using a microplate reader (model plus 384, Molecular Devices, LLC), and the concentration of produced p-nitrophenol was calculated.

Sequence of human TNAP (P05186 18-524): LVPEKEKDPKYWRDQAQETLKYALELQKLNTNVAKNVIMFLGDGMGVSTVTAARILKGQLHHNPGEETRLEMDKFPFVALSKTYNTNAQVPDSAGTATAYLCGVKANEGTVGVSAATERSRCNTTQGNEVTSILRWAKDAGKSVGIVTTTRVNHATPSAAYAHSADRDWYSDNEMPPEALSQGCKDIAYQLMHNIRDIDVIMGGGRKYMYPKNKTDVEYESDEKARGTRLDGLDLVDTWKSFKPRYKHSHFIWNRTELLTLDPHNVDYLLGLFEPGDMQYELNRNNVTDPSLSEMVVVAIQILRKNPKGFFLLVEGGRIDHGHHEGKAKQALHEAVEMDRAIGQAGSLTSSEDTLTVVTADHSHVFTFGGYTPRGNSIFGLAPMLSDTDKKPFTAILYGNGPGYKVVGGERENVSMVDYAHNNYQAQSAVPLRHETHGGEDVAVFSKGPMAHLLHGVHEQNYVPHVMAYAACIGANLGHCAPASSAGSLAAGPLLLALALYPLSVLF

| IC50 [2] | Structure (SMILES) | also measured |
| --- | --- | --- |
|  | COc1ccc(Cl)cc1S(=O)(=O)[N-]c1cnc2c(c1)-c1ccnn1CCO2.[K+] [Example 8, Potassium [(5-chloro-2-methoxyphenyl)sulfonyl](5,6-dihydropyrazolo[1,5-d]pyrido[3,2-f][1,4]oxazepin-10-yl)azanide] | Plasma ALP inhibition (6 h ave. inhibition %) ([1]; dose 3 mg/kg): 29.4% |
|  | O=C1c2cc([N-]S(=O)(=O)c3cc(Cl)ccc3OC(F)(F)F)cnc2OC[C@H]2C[C@H](O)CN12.[K+] [Example 33, Potassium {[5-chloro-2-(trifluoromethoxy)phenyl]sulfonyl}[(8S,9aR)-8-hydroxy-5-oxo-8,9,9a,10-tetrahydro-5H,7H-pyrido[3,2-f]pyrrolo[2,1-c][1,4]oxazepin-3-yl]azanide] | Plasma ALP inhibition (6 h ave. inhibition %) ([1]; dose 0.3 mg/kg): 59.0% |
|  | O=C1c2cc([N-]S(=O)(=O)c3cc(Cl)ccc3OC(F)(F)F)cnc2OC[C@H]2C[C@@H](O)CN12.[K+] [Example 38, Potassium {[5-chloro-2-(trifluoromethoxy)phenyl]sulfonyl}[(8R,9aR)-8-hydroxy-5-oxo-8,9,9a,10-tetrahydro-5H,7H-pyrido[3,2-f]pyrrolo[2,1-c][1,4]oxazepin-3-yl]azanide] | Plasma ALP inhibition (6 h ave. inhibition %) ([1]; dose 0.3 mg/kg): 65.5% |
|  | CCOc1ncc(F)cc1S(=O)(=O)[N-]c1cnc2c(c1)-c1ccnn1[C@@H](C)CO2.[K+] [Example 25, potassium [(2-ethoxy-5-fluoropyridin-3-yl)sulfonyl][(5S)-5-methyl-5,6-dihydropyrazolo[1,5-d]pyrido[3,2-f][1,4]oxazepin-10-yl]azanide] | Plasma ALP inhibition (6 h ave. inhibition %) ([1]; dose 3 mg/kg): 55.5% |
|  | COc1ccc(Cl)cc1S(=O)(=O)[N-]c1cnc2c(c1)CN1C(=O)[C@@H](O)C[C@H]1CO2.[K+] [Example 55, Potassium [(5-chloro-2-methoxyphenyl)sulfonyl][(8S,9aS)-8-hydroxy-7-oxo-8,9,9a,10-tetrahydro-5H,7H-pyrido[3,2-f]pyrrolo[2,1-c][1,4]oxazepin-3-yl]azanide] | Plasma ALP inhibition (6 h ave. inhibition %) ([1]; dose 1 mg/kg): 65.7% |
|  | COc1ncc(Cl)cc1S(=O)(=O)[N-]c1cnc2c(c1)-c1ccnn1[C@@H](C)CO2.[K+] [Example 22, potassium [(5-chloro-2-methoxypyridin-3-yl)sulfonyl][(5S)-5-methyl-5,6-dihydropyrazolo[1,5-d]pyrido[3,2-f][1,4]oxazepin-10-yl]azanide] | Plasma ALP inhibition (6 h ave. inhibition %) ([1]; dose 3 mg/kg): 28.4% |
|  | CCOc1ccc(F)cc1S(=O)(=O)[N-]c1cnc2c(c1)-c1ccnn1[C@@H](C)CO2.[K+] [Example 19, Potassium [(2-ethoxy-5-fluorophenyl)sulfonyl][(5S)-5-methyl-5,6-dihydropyrazolo[1,5-d]pyrido[3,2-f][1,4]oxazepin-10-yl]azanide] | Plasma ALP inhibition (6 h ave. inhibition %) ([1]; dose 3 mg/kg): 27.5% |
|  | CCOc1ccc(F)cc1S(=O)(=O)[N-]c1cnc2c(c1)CN1C(=O)COC[C@H]1CO2.[K+] [Example 62, Potassium [(2-ethoxy-5-fluorophenyl)sulfonyl][(10aS)-7-oxo-7,8,10a,11-tetrahydro-5H,10H-[1,4]oxazino[3,4-c]pyrido[3,2-f][1,4]oxazepin-3-yl]azanide] | Plasma ALP inhibition (6 h ave. inhibition %) ([1]; dose 1 mg/kg): 76.0% |
|  | CCOc1ncc(F)cc1S(=O)(=O)[N-]c1cnc2c(c1)-c1ccnn1CCO2.[K+] [Example 15, Potassium 5,6-dihydropyrazolo[1,5-d]pyrido[3,2-f][1,4]oxazepin-10-yl[(2-ethoxy-5-fluoropyridin-3-yl)sulfonyl]azanide] | Plasma ALP inhibition (6 h ave. inhibition %) ([1]; dose 3 mg/kg): 61.4% |
|  | CCOc1ccc(F)cc1S(=O)(=O)[N-]c1cnc2c(c1)-c1ccnn1CCO2.[K+] [Example 10, Potassium 5,6-dihydropyrazolo[1,5-d]pyrido[3,2-f][1,4]oxazepin-10-yl[(2-ethoxy-5-fluorophenyl)sulfonyl]azanide] | Plasma ALP inhibition (6 h ave. inhibition %) ([1]; dose 3 mg/kg): 43.3% |
| 2 nM | COc1ccc(Cl)cc1S(=O)(=O)Nc1cnc2c(c1)C(=O)N1CC(F)(F)C[C@@H]1CO2 [Example 45, 5-chloro-N-[(9aR)-8,8-difluoro-5-oxo-8,9,9a,10-tetrahydro-5H,7H-pyrido[3,2-f]pyrrolo[2,1-c][1,4]oxazepin-3-yl]-2-methoxybenzenesulfonamide] |  |
| 1.2 nM | COc1ccc(Cl)cc1S(=O)(=O)Nc1cnc2c(c1)C(=O)N1CCC[C@@H]1CO2 [Example 28, 5-chloro-2-methoxy-N-[(9aR)-5-oxo-8,9,9a,10-tetrahydro-5H,7H-pyrido[3,2-f]pyrrolo[2,1-c][1,4]oxazepin-3-yl]benzenesulfonamide] |  |
| 1.4 nM | COc1ccc(Cl)cc1S(=O)(=O)Nc1cnc2c(c1)CN1C(=O)CCC[C@H]1CO2 [Example 59, 5-chloro-2-methoxy-N-[(10aS)-7-oxo-7,8,9,10,10a, 11-hexahydro-5H-dipyrido[2,1-c:3′,2′-f][1,4]oxazepin-3-yl]benzenesulfonamide] |  |
| 0.4 nM | COc1ccc(Cl)cc1S(=O)(=O)Nc1cnc2c(c1)C(=O)N1CC[C@H](O)[C@@H]1CO2 [Example 41, 5-chloro-N-[(9S,9aS)-9-hydroxy-5-oxo-8,9,9a,10-tetrahydro-5H,7H-pyrido[3,2-f]pyrrolo[2,1-c][1,4]oxazepin-3-yl]-2-methoxybenzenesulfonamide] |  |
| 5.8 nM | COc1ccc(Cl)cc1S(=O)(=O)Nc1cnc2c(c1)C(=O)N1CC[C@@H](O)[C@@H]1CO2 [Example 40, 5-chloro-N-[(9R,9aS)-9-hydroxy-5-oxo-8,9,9a,10-tetrahydro-5H,7H-pyrido[3,2-f]pyrrolo[2,1-c][1,4]oxazepin-3-yl]-2-methoxybenzenesulfonamide] |  |
| 1.5 nM | CC(=O)O[C@H]1C[C@@H]2COc3ncc(NS(=O)(=O)c4cc(Cl)ccc4OC(F)(F)F)cc3C(=O)N2C1 [Example 47, (8S,9aR)-3-({[5-chloro-2-(trifluoromethoxy)phenyl]sulfonyl}amino)-5-oxo-8,9,9a,10-tetrahydro-5H,7H-pyrido[3,2-f]pyrrolo[2,1-c][1,4]oxazepin-8-yl acetate] |  |
| 8.5 nM | COc1ncc(Cl)cc1S(=O)(=O)Nc1cnc2c(c1)-c1ccnn1CCO2 [Example 12, 5-chloro-N-(5,6-dihydropyrazolo[1,5-d]pyrido[3,2-f][1,4]oxazepin-10-yl)-2-methoxypyridine-3-sulfonamide] |  |
| 4.3 nM | COc1ccc(Cl)cc1S(=O)(=O)Nc1cnc2c(c1)CN1C(=O)[C@H](O)C[C@H]1CO2 [Example 53, 5-chloro-N-[(8R,9aS)-8-hydroxy-7-oxo-8,9,9a,10-tetrahydro-5H,7H-pyrido[3,2-f]pyrrolo[2,1-c][1,4]oxazepin-3-yl]-2-methoxybenzenesulfonamide] |  |
| 13.2 nM | COc1ccc(Cl)cc1S(=O)(=O)Nc1cnc2c(c1)C(=O)N1CCC[C@H]1CO2 [Example 27, 5-chloro-2-methoxy-N-[(9aS)-5-oxo-8,9,9a,10-tetrahydro-5H,7H-pyrido[3,2-f]pyrrolo[2,1-c][1,4]oxazepin-3-yl]benzenesulfonamide] |  |
| 1.4 nM | O=C1COCC2COc3ncc(NS(=O)(=O)c4cc(Cl)ccc4OC(F)(F)F)cc3CN12 (centres unmarked) [Example 63] |  |
| 2.8 nM | COc1ccc(Cl)cc1S(=O)(=O)Nc1cnc2c(c1)-c1nnc(C(C)C)n1CCO2 [Example 5, 5-chloro-2-methoxy-N-[3-(propan-2-yl)-5,6-dihydropyrido[3,2-f][1,2,4]triazolo[4,3-d][1,4]oxazepin-10-yl]benzenesulfonamide] |  |

| Structure (SMILES) | IC50 [2] | also measured |
| --- | --- | --- |
| CCOc1ccc(F)cc1S(=O)(=O)Nc1cnc2c(c1)-c1ccnn1CCO2 [Example 9, N-(5,6-dihydropyrazolo[1,5-d]pyrido[3,2-f][1,4]oxazepin-10-yl)-2-ethoxy-5-fluorobenzenesulfonamide] | 3.4 nM |  |
| CCOc1ccc(F)cc1S(=O)(=O)Nc1cnc2c(c1)CN1C(=O)COC[C@H]1CO2 [Example 61, 2-ethoxy-5-fluoro-N-[(10aS)-7-oxo-7,8,10a,11-tetrahydro-5H,10H-[1,4]oxazino[3,4-c]pyrido[3,2-f][1,4]oxazepin-3-yl]benzenesulfonamide] | 0.6 nM |  |
